Experiments:
[1] = molecular target: T1, C-C chemokine receptor type 3 (Homo sapiens, UniProt P51677); test: Displacement of [3H]-4-(2,4-dichloro-3-methylphenoxy)-l'-[4- (methylsulfonyl)benzoyl]-l,4'-bipiperidine from human recombinant CCR3 expressed in CHOK1 cells after 2 hrs by scintillation counting analysis; assay type: cell-based, CHO-K1
T1 sequence (P51677 whole entry): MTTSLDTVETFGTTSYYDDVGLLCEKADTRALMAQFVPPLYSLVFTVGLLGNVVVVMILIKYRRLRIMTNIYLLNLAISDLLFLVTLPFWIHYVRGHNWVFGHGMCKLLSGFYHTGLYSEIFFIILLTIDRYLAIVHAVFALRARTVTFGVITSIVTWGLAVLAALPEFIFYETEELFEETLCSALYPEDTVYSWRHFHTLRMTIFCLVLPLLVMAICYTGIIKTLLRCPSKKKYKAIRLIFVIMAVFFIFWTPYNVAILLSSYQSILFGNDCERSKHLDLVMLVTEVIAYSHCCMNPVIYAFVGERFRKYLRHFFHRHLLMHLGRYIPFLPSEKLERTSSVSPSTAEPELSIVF

physchem = settings: octanol/water
Histamine H1 receptor [2] = molecular target: T2, Histamine H1 receptor (Homo sapiens, UniProt P35367); test: Displacement of [3H]-pyrilamine from human histamine H1 receptor expressed in recombinant CHOK1 cells after 1 hr; assay type: cell-based, CHO-K1
T2 sequence (P35367 whole entry): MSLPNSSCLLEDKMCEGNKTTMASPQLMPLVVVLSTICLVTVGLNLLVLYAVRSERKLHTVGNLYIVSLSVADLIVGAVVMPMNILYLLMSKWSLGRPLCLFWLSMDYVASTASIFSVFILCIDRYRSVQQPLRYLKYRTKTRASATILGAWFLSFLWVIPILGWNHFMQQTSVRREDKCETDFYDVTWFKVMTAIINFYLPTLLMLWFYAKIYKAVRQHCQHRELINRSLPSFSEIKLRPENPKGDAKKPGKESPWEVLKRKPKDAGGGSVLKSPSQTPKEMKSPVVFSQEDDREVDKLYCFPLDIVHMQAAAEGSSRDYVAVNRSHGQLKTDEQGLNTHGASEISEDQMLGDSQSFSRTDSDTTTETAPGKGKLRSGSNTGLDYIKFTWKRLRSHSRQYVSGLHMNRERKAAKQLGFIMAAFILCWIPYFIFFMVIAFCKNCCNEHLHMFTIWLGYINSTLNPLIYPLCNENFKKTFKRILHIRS

[3] = molecular target: Voltage-gated inwardly rectifying potassium channel KCNH2 (Homo sapiens, UniProt Q12809)
Sequence of Voltage-gated inwardly rectifying potassium channel KCNH2 (Q12809 whole entry): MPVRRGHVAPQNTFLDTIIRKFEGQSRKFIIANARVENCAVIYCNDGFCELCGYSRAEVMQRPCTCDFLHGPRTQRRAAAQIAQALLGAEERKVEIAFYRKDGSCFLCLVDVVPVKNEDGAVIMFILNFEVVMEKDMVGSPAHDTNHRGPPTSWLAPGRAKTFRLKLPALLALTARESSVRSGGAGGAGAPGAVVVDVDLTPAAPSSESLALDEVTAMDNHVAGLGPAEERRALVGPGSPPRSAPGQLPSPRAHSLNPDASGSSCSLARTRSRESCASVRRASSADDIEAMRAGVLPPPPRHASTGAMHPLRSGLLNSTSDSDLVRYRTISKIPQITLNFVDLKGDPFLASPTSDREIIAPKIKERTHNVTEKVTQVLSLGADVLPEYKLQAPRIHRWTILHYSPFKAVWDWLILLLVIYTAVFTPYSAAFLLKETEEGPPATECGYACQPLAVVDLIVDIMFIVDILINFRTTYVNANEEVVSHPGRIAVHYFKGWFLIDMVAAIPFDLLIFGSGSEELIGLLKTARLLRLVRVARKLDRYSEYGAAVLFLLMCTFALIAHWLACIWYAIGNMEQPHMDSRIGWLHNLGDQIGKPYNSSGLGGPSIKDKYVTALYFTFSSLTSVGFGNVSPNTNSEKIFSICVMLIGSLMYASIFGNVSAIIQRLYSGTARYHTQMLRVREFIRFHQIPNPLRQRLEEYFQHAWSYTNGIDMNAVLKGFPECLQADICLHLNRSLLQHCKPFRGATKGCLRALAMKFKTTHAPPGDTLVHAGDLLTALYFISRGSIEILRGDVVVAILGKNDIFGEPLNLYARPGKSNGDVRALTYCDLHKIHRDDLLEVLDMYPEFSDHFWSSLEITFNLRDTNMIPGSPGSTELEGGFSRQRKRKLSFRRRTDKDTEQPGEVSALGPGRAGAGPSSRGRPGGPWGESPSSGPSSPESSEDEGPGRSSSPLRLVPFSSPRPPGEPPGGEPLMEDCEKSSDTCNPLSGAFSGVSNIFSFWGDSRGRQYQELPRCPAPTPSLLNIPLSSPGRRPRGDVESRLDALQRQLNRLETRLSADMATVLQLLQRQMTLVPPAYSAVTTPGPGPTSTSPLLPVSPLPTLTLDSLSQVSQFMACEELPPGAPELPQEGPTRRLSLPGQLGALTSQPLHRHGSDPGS

[4] = molecular target: C-C chemokine receptor type 3 (Homo sapiens) (UniProt P51677); test: Displacement of radioligand from human CCR3 expressed in recombinant CHOK1 cells at 1 uM after 1 hr; settings: CHO-K1
[5] = molecular target: T3, C-C chemokine receptor type 3 (Homo sapiens) (UniProt P51677); test: Displacement of [3H]-4-(2,4-dichloro-3-methylphenoxy)-l'-[4- (methylsulfonyl)benzoyl]-l,4'-bipiperidine from human recombinant CCR3 expressed in CHOK1 cells at 1 uM after 2 hrs by scintillation counting analysis; assay type: cell-based; settings: CHO-K1
T3 sequence (whole entry): T1 sequence (P51677 whole entry)

in vitro [6] = settings: human
in vitro [7] = settings: rat
in vitro [8] = settings: human, hepatocytes
in vitro [9] = settings: rat, hepatocytes
[10] = molecular target: T4, C-C chemokine receptor type 1 (Homo sapiens, UniProt P32246); test: Antagonist activity at CCR1; assay type: functional
T4 sequence (P32246 whole entry): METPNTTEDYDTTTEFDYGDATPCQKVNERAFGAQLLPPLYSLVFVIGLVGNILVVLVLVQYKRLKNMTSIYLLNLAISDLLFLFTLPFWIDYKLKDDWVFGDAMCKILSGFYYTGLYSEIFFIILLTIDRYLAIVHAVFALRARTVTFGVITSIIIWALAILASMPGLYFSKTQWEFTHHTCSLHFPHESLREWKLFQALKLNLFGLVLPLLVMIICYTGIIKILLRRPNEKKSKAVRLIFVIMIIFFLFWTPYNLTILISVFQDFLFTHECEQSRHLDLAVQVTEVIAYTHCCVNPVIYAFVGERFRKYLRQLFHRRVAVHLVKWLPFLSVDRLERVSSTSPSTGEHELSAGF

[11] = Oral bioavailability in rat; assay type: ADME, organism-based; settings: in vivo
in vivo [12] = settings: rat
in vivo [13] = settings: rat; remark: listed apart in the source
in vivo [14] = settings: rat; remark: listed apart in the source
Histamine H1 receptor [15] = molecular target: T2, Histamine H1 receptor; test: Antagonist activity at histamine H1 receptor; assay type: functional

SMILES | Ki [1] [µM] | logD (physchem) | Ki (Histamine H1 receptor [2]) [µM] | IC50 [3] [µM] | inhibition [4] [%] | inhibition [5] [%] | microsomal CLint (in vitro [6]; liver microsomes) [µL/min/mg] | microsomal CLint (in vitro [7]; liver microsomes) [µL/min/mg] | also measured
O=C(NC[C@@H](O)CN1CCC(Oc2ccc(Cl)c(Cl)c2)CC1)c1cc(=O)[nH]c2ccccc12 | 0.00794 | 3.5 | 0.00398 | > 10 | > 70 | > 70 | – | – | –
N#Cc1cccc(OC[C@@H](O)CN2CCC(Oc3ccc(Cl)c(Cl)c3)CC2)c1 | 0.251 | > 4.5 | 0.00316 | – | – | > 70 | < 3 | 23 | –
O=C(NC[C@@H](O)CN1CCC(Oc2ccc(Cl)c(Cl)c2)CC1)n1c(=O)[nH]c2ccccc21 | 0.00251 | 4.5 | – | 0.501 | – | > 70 | – | – | –
N#Cc1cccc(S(=O)(=O)NC[C@@H](O)CN2CCC(Oc3ccc(Cl)c(Cl)c3)CC2)c1 | – | – | – | – | – | > 70 | 7 | 13 | –
CS(=O)(=O)c1ccccc1C(=O)NC[C@@H](O)CN1CCC(Oc2ccc(Cl)c(Cl)c2)CC1 | 0.0158 | 2.3 | 0.2 | – | > 70 | > 70 | – | 8 | hepatocyte CLint (in vitro [8]): < 2 µL/min/1e6 cells; hepatocyte CLint (in vitro [9]): < 3 µL/min/1e6 cells
N#Cc1cccc(C(=O)NC[C@@H](O)CN2CCC(Oc3ccc(Cl)c(Cl)c3)CC2)c1 | 0.02 | 3.5 | 0.02 | – | > 70 | > 70 | – | – | microsomal CLint (in vitro [6]; microsomes): 4 µL/min/mg; microsomal CLint (in vitro [7]; microsomes): 25 µL/min/mg
O=C(NC[C@@H](O)CN1CCC(Oc2ccc(Cl)c(Cl)c2)CC1)c1c[nH]c(=O)c2ccccc12 | – | – | – | – | – | > 70 | – | – | IC50 [10]: 5.01 µM
O=C(NC[C@@H](O)CN1CCC(Oc2ccc(Cl)c(Cl)c2)CC1)c1cn2cc(F)ccc2n1 | 0.2 | 3.3 | 0.0158 | – | > 70 | > 70 | – | 19 | hepatocyte CLint (in vitro [9]): 7 µL/min/1e6 cells
O=C(NC[C@@H](O)CN1CCC(Oc2ccc(Cl)c(Cl)c2)CC1)c1n[nH]c2ccccc12 | 0.00158 | 2.9 | 0.00794 | 0.251 | > 70 | > 70 | – | – | –
COc1cccc(SC[C@@H](O)CN2CCC(Oc3ccc(Cl)c(Cl)c3)CC2)c1 | 0.126 | > 4.5 | 0.02 | – | > 70 | > 70 | 17 | 49 | –
COc1cc(C(=O)NC[C@@H](O)CN2CCC(Oc3ccc(Cl)c(Cl)c3)CC2)ccc1N | 0.00398 | 3.1 | 0.0631 | 0.251 | > 70 | > 70 | – | 18 | hepatocyte CLint (in vitro [8]): < 2 µL/min/1e6 cells; bioavailability [11]: 30%; clearance (in vivo [12]): 3.36 L/h/kg; half-life (in vivo [13]): 6.5 h; hepatocyte CLint (in vitro [9]): 6 µL/min/1e6 cells; Vd (in vivo [14]): 25 L/kg
O[C@@H](CNC1CCN(Cc2ccc(Cl)c(Cl)c2)CC1)COc1ccc2ncsc2c1 | 0.158 | – | 0.316 | – | > 70 | > 70 | < 3 | – | –
O=C(NC[C@@H](O)CN1CCC(Oc2ccc(Cl)c(Cl)c2)CC1)c1n[nH]c(=O)c2ccccc12 | 0.00158 | 3.7 | – | – | – | > 70 | – | – | –
O=C(NC[C@@H](O)CN1CCC(Oc2ccc(Cl)c(Cl)c2)CC1)c1c[nH]c2ccccc12 | 0.00251 | 3.9 | 0.0316 | 2 | – | > 70 | – | – | –
CS(=O)(=O)c1ccc(C(=O)NC[C@@H](O)CN2CCC(Oc3ccc(Cl)c(Cl)c3)CC2)s1 | 0.251 | 2.9 | 0.1 | – | > 70 | > 70 | – | 20 | hepatocyte CLint (in vitro [9]): 3 µL/min/1e6 cells
N#Cc1cccc(OC[C@@H](O)CCN2CCC(Oc3ccc(Cl)c(Cl)c3)CC2)c1 | 0.0316 | > 4.5 | 0.000316 | – | > 70 | > 70 | < 3 | 22 | –
CN(C[C@@H](O)CN1CCC(Oc2ccc(Cl)c(Cl)c2)CC1)C(=O)c1c[nH]c(=O)c2ccccc12 | 0.00251 | 3.2 | – | 2 | > 70 | > 70 | – | – | –
O=C(Nc1ccccc1OCC(O)CN1CCC(Oc2ccc(Cl)c(Cl)c2)CC1)C1CCC1 (configuration not stated) | 0.1 | – | – | – | – | – | – | – | Ki [10]: 0.0158 µM; IC50 (Histamine H1 receptor [15]): 5.01 µM
CS(=O)(=O)c1ccccc1C(=O)NCC(O)CNC1CCN(Cc2ccc(Cl)c(Cl)c2)CC1 (configuration not stated) | 0.0794 | 1.2 | 1.26 | – | – | > 70 | – | < 3 | clearance (in vivo [12]): 3.24 L/h/kg; half-life (in vivo [13]): 2.3 h; hepatocyte CLint (in vitro [9]): 4 µL/min/1e6 cells; Vd (in vivo [14]): 9 L/kg
O=C(NC[C@@H](O)CN1CCC(Oc2ccc(Cl)c(Cl)c2)CC1)c1cnnc2ccccc12 | 0.0126 | 3.3 | 0.0126 | 6.31 | > 70 | > 70 | – | – | –
N#Cc1cccc(OC[C@@H](O)CNC2CCN(Cc3ccc(Cl)c(Cl)c3)CC2)c1 | 0.316 | 3.1 | 0.501 | – | > 70 | > 70 | – | 23 | hepatocyte CLint (in vitro [9]): 7 µL/min/1e6 cells
N#Cc1ccc(OC[C@@H](O)CNC2CCN(Cc3ccc(Cl)c(Cl)c3)CC2)cc1 | 0.126 | – | 0.501 | – | > 70 | > 70 | < 3 | – | –
N#Cc1cccc(OCCCN2CCC(Oc3ccc(Cl)c(Cl)c3)CC2)c1 | 0.794 | > 4.5 | 0.0126 | – | – | > 70 | 3 | 129 | –

— ChEMBL document CHEMBL2202969, “Discovery and evolution of phenoxypiperidine hydroxyamide dual CCR3/H₁ antagonists. Part I” (Bioorg Med Chem Lett, 2012)
